From publication PMC11876671, “Investigating blood–brain barrier penetration and neurotoxicity of natural products for central nervous system drug development” (Scientific Reports, 2025)

Conditions: not given

SMILES	PAMPA-BBB Pe(10^-6 cm/sec)
COc1cc2c(c3oc(=O)c4c(c13)CCOC4=O)C1C=COC1O2 (stereo not shown) [AFLATOXIN G1]	<1 10^-6 cm/sec

Same assay, conditions: PAMPA

SMILES	PAMPA-BBB permeability category	PAMPA-BBB Pe(10^-6 cm/sec)
Cn1c(=O)c2c(ncn2C)n(C)c1=O [caffeine, reference compound]	low permeability	
O=C(N[C@H](CO)[C@H](O)c1ccc([N+](=O)[O-])cc1)C(Cl)Cl [CHLORAMPHENICOL]		3.5 10^-6 cm/sec
NC(=O)N1c2ccccc2C=Cc2ccccc21 [carbamazepine, reference compound]	moderate permeability	

Same assay, conditions: Table S2: compounds exhibiting moderate to high PAMPA-BBB permeability

SMILES	PAMPA-BBB Pe
CCCCCc1c2c(cc(O)c1C(=O)O)OC(=O)c1cc(C(=O)CCCC)c(OC)cc1O2 [NCGC00160140-01]	120 10^-6 cm/sec
COc1cc2c(cc1OC)C(=O)OC2 [NCGC00095581-04]	12 10^-6 cm/sec
C/C=C/c1ccc(OC(C)[C@@H](O)c2ccc(O)c(OC)c2)c(OC)c1 (stereo partly shown) [NCGC00160251-01]	150 10^-6 cm/sec
COc1cc2c(cc1O)[C@@H]1Cc3ccc(OC)c(O)c3CN1CC2 [NCGC00179539-03]	78 10^-6 cm/sec
COc1cc(=O)n(C)c2c(OCC3OC(C)(C)OC3(C)C)cccc12 (stereo not shown) [NCGC00160200-01]	106 10^-6 cm/sec
COc1cc(/C=C/C(=O)c2ccc(O)cc2O)ccc1O [NCGC00163564-01]	188 10^-6 cm/sec
COc1cc2c(cc1OC)-c1cc3cc(OC)c(OC)cc3c(=O)n1CC2 [NCGC00160189-01]	232 10^-6 cm/sec
COc1cccc2c(=O)c3ccoc3n(C)c12 [NCGC00160208-01]	54 10^-6 cm/sec
COc1ccc(-c2cc(=O)c3c(O)cc(OC)c(OC)c3o2)c(OC)c1 [NCGC00263973-02]	201 10^-6 cm/sec
O=C1CCC[C@H]2[C@H]3CCCN4CCCC(=CN12)[C@@H]34 [NCGC00160276-01]	33 10^-6 cm/sec
c1cnc2c(-c3nccc4c3[nH]c3ccccc34)cccc2c1 [NCGC00160283-01]	352 10^-6 cm/sec
COc1ccc(C(=O)OC2C[C@H]3CC[C@H](C2)N3C)cc1OC (stereo partly shown) [NCGC00016471-04]	16 10^-6 cm/sec
CC1(C)C=Cc2c(ccc(C(=O)/C=C/c3ccccc3)c2O)O1 [NCGC00187466-02]	10 10^-6 cm/sec
COc1cc(OC)c2c(c1)OC(c1ccccc1)CC2=O (stereo not shown) [NCGC00142553-05]	176 10^-6 cm/sec
COc1ccc([C@@H](C)C(=O)c2ccc(O)cc2O)cc1 [NCGC00160149-03]	345 10^-6 cm/sec
COc1ccc(-c2oc3cc(OC)c(OC)c(OC)c3c(=O)c2OC)cc1 [NCGC00264011-02]	308 10^-6 cm/sec
COC(=O)c1c(OC)cc2c(c1C)Oc1c(Cl)c(O)c(Cl)c(C)c1C(=O)O2 [NCGC00095466-04]	27 10^-6 cm/sec

SMILES	PAMPA-BBB Pe
COc1cc(O)c2c(c1)/C=C/C[C@H](O)[C@H](O)[C@H](O)CCC[C@H](C)OC2=O [NCGC00189513-01]	245 10^-6 cm/sec
COc1cc2c(cc1OC)C(C(=O)c1ccc(OC)c(OC)c1O)=NCC2 [NCGC00160282-01]	19 10^-6 cm/sec
O=C(/C=C/c1ccc(O)c(O)c1)OCCc1ccccc1 [PHENETHYL CAFFEATE]	>1000 10^-6 cm/sec
COc1ccc2c(c1)O[C@@H]1COc3cc(OC)c(OC)cc3[C@@H]1C2=O [NCGC00178970-02]	355 10^-6 cm/sec
COc1cc2c(cc1-c1coc3c4c(c(OC)cc3c1=O)OC(C)(C)C=C4)OCO2 [NCGC00178961-03]	146 10^-6 cm/sec
C[C@@H]1O[C@@H](O[C@H]2CC[C@@H](O[C@H]3[C@H](O)C[C@H](c4ccc5c(c4O)C(=O)C4=C(C5=O)[C@@]5(O)C(=O)C[C@](C)(O[C@H]6CC[C@H](O[C@H]7C=CC(=O)[C@H](C)O7)[C@H](C)O6)C[C@@]5(O)C=C4)O[C@@H]3C)O[C@H]2C)C=CC1=O [NCGC00163640-01]	17 10^-6 cm/sec
CCOC(=O)c1c(C)cc(OC)cc1O [NCGC00095529-01]	290 10^-6 cm/sec
COc1cc(OC)c2c(c1Cl)O[C@]1(C2=O)[C@H](C)CC(=O)C[C@@H]1OC [NCGC00016380-01]	31 10^-6 cm/sec
NC(=O)Nc1ccc(Cl)c(Cl)c1 [NCGC00255466-01]	148 10^-6 cm/sec
COC(=O)c1c(C)c2c(c(C)c1O)OC(=O)c1c(C)c(Cl)c(O)c(Cl)c1O2 [NCGC00095464-04]	281 10^-6 cm/sec
CC1=CC(=O)C2=C(C)C[C@@H]3OC(=O)[C@@H](C)[C@H]3C=C12 [NCGC00160288-01]	74 10^-6 cm/sec
CC(=O)OC(C)(C)[C@@H]1Cc2cc3ccc(=O)oc3cc2O1 [NCGC00178115-02]	128 10^-6 cm/sec
CN(C)CCc1cc2c(c3c1ccc1ccccc13)OCO2 [NCGC00160247-01]	27 10^-6 cm/sec
COc1c2ccoc2nc2c(OC)c(OC[C@@H](O)C(C)(C)O)ccc12 [NCGC00179458-02]	12 10^-6 cm/sec
C=C(C)[C@H]1COc2cc3oc(=O)ccc3cc2O1 [NCGC00179107-03]	152 10^-6 cm/sec
C/C=C(/C)C(=O)O[C@H]1CC(C)=CC(=O)[C@@]2(C)CC[C@@](O)(C(C)C)[C@H]12 [NCGC00163582-01]	125 10^-6 cm/sec

Same assay, conditions: Table S3: compounds exhibiting low PAMPA-BBB permeability

SMILES	PAMPA-BBB Pe(10^-6 cm/sec)
N[C@H](C(=O)O)c1ccc(O)c(C(=O)O)c1 [NCGC00024539-02]	<1 10^-6 cm/sec
O=C1CC[C@]23/C=C/C(=O)NCCCCNCCCNC(=O)/C=C/c4ccc(c2c4)O[C@@H]3C1 [NCGC00263997-01]	<1 10^-6 cm/sec
COc1cc2oc(=O)c3c4c(cc5ccc(c1CCN(C)C)c2c53)OCO4 [NCGC00160212-01]	<1 10^-6 cm/sec
COc1ccc([C@@H]2[C@@H](O)[C@H](O)[C@@H](C)N2C)cc1OC [NCGC00160242-01]	1.3 10^-6 cm/sec
O=C(CO)c1c[nH]c2ccccc12 [NCGC00182562-01]	6.7 10^-6 cm/sec
C=CC(O)C1OC1C=CC1OC1C(C)O (stereo not shown) [NCGC00263647-01]	<1 10^-6 cm/sec
COC(=O)[C@H](Cc1ccccc1)NC(=O)/C(=C1\OC(=O)C(c2ccccc2)=C1O)c1ccccc1 [NCGC00263991-01]	<1 10^-6 cm/sec
COC(=O)C(O)C(O)(CCC(C)C)C(=O)OC1C(OC)=CC23CCCN2CCc2cc4c(cc2C13)OCO4 (stereo not shown) [NCGC00161614-01]	<1 10^-6 cm/sec
COc1cc(-c2oc3cc(O)cc(O)c3c(=O)c2O[C@@H]2O[C@H](CO)[C@@H](O)[C@H](O)[C@H]2O)cc(OC)c1O [NCGC00163630-01]	<1 10^-6 cm/sec
COC1=C(O)C(=O)c2c(cc3oc(C(C)=O)c(O)c3c2O)C1=O [NCGC00178066-02]	<1 10^-6 cm/sec
C[C@@H]1OC(O[C@H]2[C@H](Oc3cc(O)c4c(=O)c(O)c(-c5ccc(O)cc5)oc4c3)O[C@H](CO)[C@@H](O)[C@@H]2O)[C@H](O)[C@H](O)[C@H]1O (stereo partly shown) [NCGC00163581-01]	<1 10^-6 cm/sec
COc1ccc(C2CC(=O)c3ccc(OC)cc3O2)cc1 (stereo not shown) [NCGC00095734-01]	5.8 10^-6 cm/sec
COC(=O)C1=CC[C@@]23CC[C@@H]([C@@](C)(/C=C/C=C(\C)C(=O)O)OC2=O)[C@@]3(OC(C)=O)CC1 [NCGC00344122-04]	<1 10^-6 cm/sec
CC(=O)O[C@H]1C[C@@H](OC(C)=O)C(C)(C)C2C[C@@H](OC(C)=O)[C@]3(C)C(CC[C@@]4(C)[C@H](c5ccoc5)OC(=O)[C@H]5O[C@]543)[C@]21C (stereo partly shown) [NCGC00179019-03]	2.7 10^-6 cm/sec
CNCCCCc1cnc(C)c2[nH]c3ccccc3c12 [NCGC00160349-01]	<1 10^-6 cm/sec
COc1c2ccoc2nc2c(OC)c(O[C@@H]3O[C@H](C)[C@@H](O)[C@@H](O)[C@H]3O)ccc12 [NCGC00160235-01]	<1 10^-6 cm/sec
COc1cc2oc(=O)ccc2cc1O [NCGC00163577-02]	2.2 10^-6 cm/sec

SMILES	PAMPA-BBB Pe(10^-6 cm/sec)
CC1=CC(=O)/C(=C(/C)O)C(=O)O1 [NCGC00254206-01]	3.3 10^-6 cm/sec
O=C(NC[C@H](O)c1ccccc1)c1ccccc1 [NCGC00160191-01]	<1 10^-6 cm/sec
c1ccc2c3c([nH]c2c1)[C@H]1[C@@H]2CC[C@@H]([C@@H]4CCCN[C@@H]42)N1CC3 [NCGC00262532-02]	<1 10^-6 cm/sec
COc1cc(/C=C2/C(=O)Nc3ccccc32)cc(OC)c1O [NCGC00343740-01]	4.8 10^-6 cm/sec
C[N+]12CC[C@@]34c5ccccc5N5C(=O)C[C@@H]6OCC=C(C1)[C@H](CC32)[C@@H]6C54 (stereo partly shown) [NCGC00264058-02]	<1 10^-6 cm/sec
COc1ccc(C(=O)CC(=O)O)c2c1C=CC(C)(C)O2 [NCGC00074767-03]	<1 10^-6 cm/sec
COc1cc(C/C=C\c2ccccc2)c(OC)cc1O [NCGC00160148-01]	1.3 10^-6 cm/sec
O=C1N[C@@H](Cc2c[nH]c3ccccc23)C(=O)N[C@H]1Cc1c[nH]c2ccccc12 [NCGC00160254-01]	<1 10^-6 cm/sec
OC[C@H]1O[C@@H](Oc2cccc3ccccc23)[C@H](O)[C@@H](O)[C@H]1O [NCGC00351880-01]	<1 10^-6 cm/sec
C[C@]12O[C@H](C[C@@]1(O)C(=O)O)n1c3ccccc3c3c4c(c5c6ccccc6n2c5c31)CNC4=O [NCGC00163504-01]	<1 10^-6 cm/sec
COc1ccccc1O[C@@H]1O[C@H](CO)[C@H](O)[C@H](O)[C@H]1O [NCGC00351878-01]	1.5 10^-6 cm/sec
Cn1c2c(c(=O)c3ccccc31)C[C@@H](O)C(C)(C)O2 [NCGC00160238-01]	<1 10^-6 cm/sec
CC(=O)NCCc1ccc(O)c(-c2c(O)c(O)c3c(c2O)C(=O)c2c(cc(O)c(C(=O)O)c2C(=O)O)C3=O)c1 [NCGC00263986-01]	<1 10^-6 cm/sec
COc1cc(C(O)CO)ccc1OS(=O)(=O)[O-].[K+] (stereo not shown) [NCGC00261311-01]	<1 10^-6 cm/sec
OC[C@H]1O[C@@H](n2cnc3cncnc32)[C@H](O)[C@@H]1O [NEBULARINE¦NEBULARINE]	<1 10^-6 cm/sec
Cc1c(O)c2c(c(C(=O)/C=C/c3ccccc3)c1O)OC(C)(C)C=C2 [NCGC00187465-01]	<1 10^-6 cm/sec
